Results reported in US6482815B1 (priority 1999, dated 2002).
Read-outs that look alike come from different tables or passages of the source. Values belong to the compound of their own block, whether it stands above or below them.

Columns and labels:
NALM-6 [1] = assay: cells; assay type: cell-based; conditions: Homo sapiens, NALM-6, read-out: NALM-6 IC50
MOLT-3 [2] = assay: cells; assay type: cell-based; conditions: Homo sapiens, MOLT-3, read-out: MOLT-3 IC50
ALL1 = assay: cells; assay type: cell-based; conditions: Homo sapiens, read-out: ALL1 IC50
RS4;11 = assay: cells; assay type: cell-based; conditions: Homo sapiens, RS4-11, read-out: RS4;11 IC50
NALM-6 [3] = assay: Anti-proliferative activity (colony counts), NALM-6; assay type: cell-based, human
Excerpt: (§1) The dose-responsive anti-proliferative activity of various organic arsenic acid substituted compounds against leukemic cell lines (NALM-6 and MOLT-3) is shown below in Table 3. FIGS. 3A-3F show dose response curves in ALL1, NALM-6, and MOLT-3 cells.

MOLT-3 [4] = assay: Anti-proliferative activity (colony counts), MOLT-3; assay type: cell-based, human
Excerpt: as §1

BT20 [5] = assay: cells; conditions: Homo sapiens, BT-20, read-out: BT20 IC50
primary leukemic cells = assay: MTT cytotoxicity against primary leukemic cells; conditions: cells from 5 leukemia patients, FIGS. 4A-4E
BT20 [6] = system: BT20
[7] = system: leukemic cell lines (NALM-6, MOLT-3, ALL1, RS4;11); assay: cells; conditions: Homo sapiens, read-out: IC50 values in leukemic cell lines
NALM-6 cells = assay: MTT cytotoxicity over 1-4 days versus arsenic trioxide, NALM-6; conditions: MTT, doses 0.07 μM to 5 μM
[8] = NALM-6, concentration 0.1 (mM as printed)
[9] = NALM-6, concentration 1 (mM as printed)
[10] = NALM-6, concentration 10 (mM as printed)
[11] = NALM-6, concentration 100 (mM as printed)
[12] = MOLT-3, concentration 0.1 (mM as printed)
[13] = MOLT-3, concentration 1 (mM as printed)
[14] = MOLT-3, concentration 10 (mM as printed)
[15] = MOLT-3, concentration 100 (mM as printed)

- melting point: > 300 °C
Compound: COc1cc2ncnc(Nc3ccc([As](=O)(O)O)cc3)c2cc1OC

Compound: COc1cc2ncnc(Nc3ccc(N=Nc4ccc([As](=O)(O)O)cc4)cc3)c2cc1OC [WHI-P273, 4-[(6′,7′-Dimethoxyquinazoline-4′)-aminophenylazo]phenyl arsenic acid]
- IC50 (NALM-6 [1]): 7.3 µM
- IC50 (MOLT-3 [2]): 12.1 µM
- IC50 (ALL1): 8.2 µM
- IC50 (RS4;11): 7.7 µM
- % Inhibition (NALM-6 [3]; [8]): 13.7%
- Mean No. of Colonies/10^6 Cells (NALM-6 [3]; [8]): 3638(3260, 4016) Colonies/10^6 Cells
- % Inhibition (NALM-6 [3]; [9]): 98.5%
- Mean No. of Colonies/10^6 Cells (NALM-6 [3]; [9]): 61(24, 96) Colonies/10^6 Cells
- % Inhibition (NALM-6 [3]; [10]): 100%
- Mean No. of Colonies/10^6 Cells (NALM-6 [3]; [10]): 0 Colonies/10^6 Cells
- % Inhibition (NALM-6 [3]; [11]): 100%
- Mean No. of Colonies/10^6 Cells (NALM-6 [3]; [11]): 0 Colonies/10^6 Cells
- Mean No. of Colonies/10^6 Cells (MOLT-3 [4]; [12]): 1230(968, 1492) Colonies/10^6 Cells
- % Inhibition (MOLT-3 [4]; [13]): 75%
- Mean No. of Colonies/10^6 Cells (MOLT-3 [4]; [13]): 264(216, 312) Colonies/10^6 Cells
- % Inhibition (MOLT-3 [4]; [14]): 100%
- Mean No. of Colonies/10^6 Cells (MOLT-3 [4]; [14]): 0 Colonies/10^6 Cells
- % Inhibition (MOLT-3 [4]; [15]): 100%
- Mean No. of Colonies/10^6 Cells (MOLT-3 [4]; [15]): 0 Colonies/10^6 Cells
- IC50 (BT20 [5]): > 250 µM
- cytotoxic activity against primary leukemic cells (in words) (primary leukemic cells): susceptible to the cytotoxic effects

Compound: CSc1nccc(Nc2ccc(N=Nc3ccc([As](=O)(O)O)cc3)cc2)n1 [WHI-P370, 2-Methylthio-4-[(4′-aminophenylazo)-phenylarsenic acid]pyrimidine]
- IC50 (NALM-6 [1]): 5.98 µM
- IC50 (MOLT-3 [2]): 2.9 µM
- IC50 (ALL1): 1.9 µM
- IC50 (RS4;11): 4.8 µM
- % Inhibition (NALM-6 [3]; [8]): 30.9%
- Mean No. of Colonies/10^6 Cells (NALM-6 [3]; [8]): 2194(2860, 2968) Colonies/10^6 Cells
- % Inhibition (NALM-6 [3]; [9]): 100%
- Mean No. of Colonies/10^6 Cells (NALM-6 [3]; [9]): 0 Colonies/10^6 Cells
- % Inhibition (NALM-6 [3]; [10]): 100%
- Mean No. of Colonies/10^6 Cells (NALM-6 [3]; [10]): 0 Colonies/10^6 Cells
- % Inhibition (NALM-6 [3]; [11]): 100%
- Mean No. of Colonies/10^6 Cells (NALM-6 [3]; [11]): 0 Colonies/10^6 Cells
- % Inhibition (MOLT-3 [4]; [12]): 6.1%
- Mean No. of Colonies/10^6 Cells (MOLT-3 [4]; [12]): 992(896, 1088) Colonies/10^6 Cells
- % Inhibition (MOLT-3 [4]; [13]): 100%
- Mean No. of Colonies/10^6 Cells (MOLT-3 [4]; [13]): 0 Colonies/10^6 Cells
- % Inhibition (MOLT-3 [4]; [14]): 100%
- Mean No. of Colonies/10^6 Cells (MOLT-3 [4]; [14]): 0 Colonies/10^6 Cells
- % Inhibition (MOLT-3 [4]; [15]): 100%
- Mean No. of Colonies/10^6 Cells (MOLT-3 [4]; [15]): 0 Colonies/10^6 Cells
- melting point: 240 to 242 °C
- cytotoxic against the breast cancer cell line BT20 (in words) (BT20 [6]): cytotoxic
- IC50 (BT20 [5]): 67.8 µM
- cytotoxic activity against primary leukemic cells (in words) (primary leukemic cells): susceptible to the cytotoxic effects

Compound: O=[As](O)(O)c1ccc(N=Nc2ccc(Nc3ncnc4[nH]cnc34)cc2)cc1 [WHI-P371, 6-[(4′-Aminophenylazo)-phenylarsenic acid]-purine]
- IC50 (NALM-6 [1]): 15.2 µM
- IC50 (MOLT-3 [2]): 21.6 µM
- IC50 (ALL1): 24.5 µM
- IC50 (RS4;11): 16.2 µM
- % Inhibition (NALM-6 [3]; [8]): 8.8%
- Mean No. of Colonies/10^6 Cells (NALM-6 [3]; [8]): 3846(3696, 3996) Colonies/10^6 Cells
- % Inhibition (NALM-6 [3]; [9]): 76.4%
- Mean No. of Colonies/10^6 Cells (NALM-6 [3]; [9]): 994(616, 1372) Colonies/10^6 Cells
- % Inhibition (NALM-6 [3]; [10]): 100%
- Mean No. of Colonies/10^6 Cells (NALM-6 [3]; [10]): 0 Colonies/10^6 Cells
- % Inhibition (NALM-6 [3]; [11]): 100%
- Mean No. of Colonies/10^6 Cells (NALM-6 [3]; [11]): 0 Colonies/10^6 Cells
- Mean No. of Colonies/10^6 Cells (MOLT-3 [4]; [12]): 1098(1004, 1192) Colonies/10^6 Cells
- % Inhibition (MOLT-3 [4]; [13]): 27.9%
- Mean No. of Colonies/10^6 Cells (MOLT-3 [4]; [13]): 761(678, 844) Colonies/10^6 Cells
- % Inhibition (MOLT-3 [4]; [14]): 100%
- Mean No. of Colonies/10^6 Cells (MOLT-3 [4]; [14]): 0 Colonies/10^6 Cells
- % Inhibition (MOLT-3 [4]; [15]): 100%
- Mean No. of Colonies/10^6 Cells (MOLT-3 [4]; [15]): 0 Colonies/10^6 Cells
- melting point: > 300 °C
- IC50 (BT20 [5]): > 250 µM
- cytotoxic activity against primary leukemic cells (in words) (primary leukemic cells): susceptible to the cytotoxic effects

Compound: Nc1nc(N)nc(Nc2ccc(N=Nc3ccc([As](=O)(O)O)cc3)cc2)n1 [WHI-P374, 2,6-Diamino-4[(4′-aminophenylazo)-phenylarsenic acid]-1,3,5-triazine]
- IC50 (NALM-6 [1]): 50.1 µM
- IC50 (MOLT-3 [2]): 104 µM
- IC50 (ALL1): 55.8 µM
- IC50 (RS4;11): 53.6 µM
- melting point: > 300 °C
- cytotoxic against the breast cancer cell line BT20 (in words) (BT20 [6]): cytotoxic
- IC50 (BT20 [5]): 13.9 µM

Compound: COc1cc2ncnc(Nc3ccccc3[As](=O)(O)O)c2cc1OC [WHI-P378, 4-(2′-phenylarsenic acid)amino-6,7-dimethoxyquinazoline]
- IC50 (NALM-6 [1]): 46.6 µM
- IC50 (MOLT-3 [2]): 67.3 µM
- IC50 (ALL1): 128 µM
- IC50 (RS4;11): 115 µM
- melting point: > 300 °C
- IC50 (BT20 [5]): > 250 µM

Compound: CSc1nccc(Nc2ccc([As](=O)(O)O)cc2)n1 [WHI-P380, 2-Methylthio-4-(4′-phenylarsenic acid)-aminopyrimidine]
- IC50 (NALM-6 [1]): 1.7 µM
- IC50 (MOLT-3 [2]): 14.2 µM
- IC50 (ALL1): 6.2 µM
- IC50 (RS4;11): 10.2 µM
- % Inhibition (NALM-6 [3]; [8]): 66.9%
- Mean No. of Colonies/10^6 Cells (NALM-6 [3]; [8]): 400(116, 684) Colonies/10^6 Cells
- % Inhibition (NALM-6 [3]; [9]): 99.8%
- Mean No. of Colonies/10^6 Cells (NALM-6 [3]; [9]): 2(3, 1) Colonies/10^6 Cells
- % Inhibition (NALM-6 [3]; [10]): 100%
- Mean No. of Colonies/10^6 Cells (NALM-6 [3]; [10]): 0 Colonies/10^6 Cells
- % Inhibition (NALM-6 [3]; [11]): 100%
- Mean No. of Colonies/10^6 Cells (NALM-6 [3]; [11]): 0 Colonies/10^6 Cells
- % Inhibition (MOLT-3 [4]; [12]): 52.8%
- Mean No. of Colonies/10^6 Cells (MOLT-3 [4]; [12]): 678(624, 732) Colonies/10^6 Cells
- % Inhibition (MOLT-3 [4]; [13]): 69.7%
- Mean No. of Colonies/10^6 Cells (MOLT-3 [4]; [13]): 436(272, 600) Colonies/10^6 Cells
- % Inhibition (MOLT-3 [4]; [14]): 100%
- Mean No. of Colonies/10^6 Cells (MOLT-3 [4]; [14]): 0 Colonies/10^6 Cells
- % Inhibition (MOLT-3 [4]; [15]): 100%
- Mean No. of Colonies/10^6 Cells (MOLT-3 [4]; [15]): 0 Colonies/10^6 Cells
- melting point: > 300 °C
- IC50 (BT20 [5]): 239 µM
- IC50 [7]: 1.7 to 14.2 µM
- cytotoxic activity against primary leukemic cells (in words) (primary leukemic cells): susceptible to the cytotoxic effects

Compound: Arsenic trioxide [reference compound]
- IC50 (NALM-6 cells; read-out: Cytotoxicity against NALM-6 cells IC50, Day 1, 1 day of treatment): 3.8 µM
- IC50 (NALM-6 cells; read-out: Cytotoxicity against NALM-6 cells IC50, Day 2, 2 days of treatment): 3.2 µM
- IC50 (NALM-6 cells; read-out: Cytotoxicity against NALM-6 cells IC50, Day 3, 3 days of treatment): 2 µM
- IC50 (NALM-6 cells; read-out: Cytotoxicity against NALM-6 cells IC50, Day 4, 4 days of treatment): 1.2 µM
